Read-outs that look alike come from different tables or passages of the source.
How the values were obtained:
[1] = Solubility measurements in several solvent systems; format: physicochemical; conditions: for Solubility, 10:90 EtOH:H2 O: 10:90 Ethanol (EtOH):H2 O; for Solubility, 50:50 EtAc:Hexane: 50:50 Ethyl Acetate (EtAc):Hexane
Description: (§1) 25 grams of neotame was spread out equally on six containers and heated slowly past its melting point of about 82° C. until a temperature of about 92° C. was reached. […] Once 92° C. was reached, all of the neotame was melted. The containers containing the neotame were removed from the oven and allowed to cool to room temperature, about 23° C. The neotame was removed from the containers, and ground to a […] powder with a mortar and pestle. The x-ray diffraction pattern of the resulting amorphous neotame is illustrated in FIG. 1. Rates of dissolution and solubility measurements were then determined in several different solvent systems (deionized water; 0.1M phosphate (pH3) in water; 10:90 Ethanol (EtOH):H2 O; and 50:50 Ethyl Acetate (EtAc):Hexane) and compared to the conventional form of the neotame monohydrate.

[2] = Rate of dissolution compared to neotame monohydrate; format: physicochemical; conditions: in a variety of solvents commonly used in the food industry; FIG. 3 and FIG. 4 at 20° C.
Description: as §1, with “monohydrate. The solubility results are set forth below:” for “monohydrate.”
FIG. 3 illustrates a comparison of the dissolution of the amorphous neotame of Example 1 with neotame monohydrate in deionized water at 20° C. FIG. 4 illustrates a similar comparison in 0.1 M phosphate buffer.

Sweetening potency = conditions: amorphous neotame; "is believed to have"
[3] = known sweetener neotame; cited from earlier work

SMILES	Solubility, 0.1 M Phosphate pH3 ([1]; 0.1M phosphate (pH3) in water)	Solubility, 10:90 EtOH:H2 O [1]	Solubility, 50:50 EtAc:Hexane [1]	Solubility, Water ([1]; deionized water)	solubility compared to that of the monohydrate form ([1]; in a variety of solvents commonly used in the food industry)	rate of dissolution compared to that of the monohydrate form [2]	sweetening potency relative to aspartame (believed) (Sweetening potency)	solubility ([1]; 0.1 m phosphate, pH 3, 0.1M phosphate (pH3) in water, read-out: Solubility, 0.1 M Phosphate pH3)	solubility ([1]; water, deionized water, read-out: Solubility, Water)	sweetening potency relative to aspartame [3]	sweetening potency relative to sucrose [3]
COC(=O)[C@H](Cc1ccccc1)NC(=O)[C@H](CC(=O)O)NCCC(C)(C)C [Example 1, amorphous N-[N-(3,3-dimethylbutyl)-L-α-aspartyl]-L-phenylalanine 1-methyl ester]	1.49 grams of neotame/100 grams sol	1.57 grams of neotame/100 grams sol	3.07 grams of neotame/100 grams sol	1.35 grams of neotame/100 grams sol	higher solubility	reduced rate of dissolution	around 40 times that of aspartame				
COC(=O)[C@H](Cc1ccccc1)NC(=O)[C@H](CC(=O)O)NCCC(C)(C)C [Neotame Monohydrate, N-[N-(3,3-dimethylbutyl)-L-α-aspartyl]-L-phenylalanine 1-methyl ester]		1.55 grams of neotame/100 grams sol	1.29 grams of neotame/100 grams sol					13.5 mg/mL	12.8 mg/mL		
COC(=O)[C@H](Cc1ccccc1)NC(=O)[C@H](CC(=O)O)NCCC(C)(C)C [Neotame, N-[N-(3,3-dimethylbutyl)-L-α-aspartyl]-L-phenylalanine 1-methyl ester]										about 40 times that of aspartame	about 8,000 times that of sucrose
